US12187713B2, “Immunomodulators, compositions and methods thereof” (Betta Pharmaceuticals Co., Ltd, priority 2019, dated 2025)

Assays:
[1] = Pharmacokinetic Assay, single oral dose 5 mg/kg (Table 12); type: in vivo; conditions: mouse, plasma concentration, C57 female mice, single oral dose 5 mg/kg
Method: Adult C57 female mice were received to single-dose of the test compounds with 15% DMSO, 10% Kolliphor^@HS 15 and 75% saline as excipients, the mice (n=3) were giving oral administration (intragastric administration) with the compounds at a dose of 5 mg/kg. Time of blood collection: 30 min, 2 h, 4 h. approximately 0.1 mL of whole blood was collected from retro-orbital venous plexus, and placed into tubes that contained K2-EDTA as an anticoagulant. The whole blood were centrifuged at 4° C. and 4000 rpm for 10 min. The plasma was transferred into centrifuge tubes, and stored at −20° C. until being analyzed. Concentrations of test compounds in the plasma samples were analyzed with liquid chromatography-tandem mass spectrometry (LC-MS/MS). Plasma concentration-time data of individual animals was analyzed using Microsoft Excel 2010.

[2] = biological target: PD-1/PD-L1 (Homo sapiens (Human), UniProt Q9NZQ7); assay: PD-1/PD-L1 Binding Assay (Alphascreen)
Sequence of PD-1/PD-L1 (Q9NZQ7 19-238): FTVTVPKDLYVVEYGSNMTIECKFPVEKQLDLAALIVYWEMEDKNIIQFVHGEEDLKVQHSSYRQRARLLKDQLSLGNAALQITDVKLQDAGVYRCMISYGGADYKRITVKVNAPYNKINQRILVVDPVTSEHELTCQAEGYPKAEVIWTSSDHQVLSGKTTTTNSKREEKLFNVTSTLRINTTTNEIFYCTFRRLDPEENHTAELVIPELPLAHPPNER
Procedure, shortened: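 PD-1/PD-L1 binding detected by anti-6×His acceptor and streptavidin donor beads after 120 min in the dark at 25 °C. Beforehand, the two proteins were incubated 15 min at 25 °C with inhibitor at 0.015–300 nM (1% DMSO). IC50 comes from a log concentration–response curve.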

Structure (SMILES) | concentration at 2 h [1] [ng/mL] | concentration at 4 h [1] [ng/mL] | IC50 ([2]; numeric values) [nM] | concentration at 0.5 h [1] [ng/mL] | IC50 ([2]; range symbols) [nM]
Cc1c(-c2nc3cc(CN4CCCC4)c(OC(F)F)cc3o2)cccc1-c1cccc(-c2nc3cc(CN4CCC[C@@H]4C(=O)O)c(OC(F)F)cc3o2)c1C [Example 66, ((6-(difluoromethoxy)-2-(3′-(6-(difluoromethoxy)-5-(pyrrolidin-1-ylmethyl)benzo[d]oxazol-2-yl)-2,2′-dimethyl-[1,1′-biphenyl]-3-yl)benzo[d]oxazol-5-yl)methyl)-D-proline] | 137 | 111 | 1.8 | – | –
Cc1c(-c2nc3cc(CN4CCC(C)(C)C4)c(OC(F)F)cc3o2)cccc1-c1cccc(-c2nc3cc(CN4CCC[C@H]4C(=O)O)c(OC(F)F)cc3o2)c1C [Example 67, ((6-(difluoromethoxy)-2-(3′-(6-(difluoromethoxy)-5-((3,3-dimethylpyrrolidin-1-yl)methyl)benzo[d]oxazol-2-yl)-2,2′-dimethyl-[1,1′-biphenyl]-3-yl)benzo[d]oxazol-5-yl)methyl)-L-proline] | 418 | 462 | 6.7 | 143 | –
Cc1c(-c2nc3cc(CN4CC=CC4)c(OC(F)F)cc3o2)cccc1-c1cccc(-c2nc3cc(CN4CCC[C@H]4C(=O)O)c(OC(F)F)cc3o2)c1C [Example 70, ((6-(difluoromethoxy)-2-(3′-(6-(difluoromethoxy)-5-((2,5-dihydro-1H-pyrrol-1-yl)methyl)benzo[d]oxazol-2-yl)-2,2′-dimethyl-[1,1′-biphenyl]-3-yl)benzo[d]oxazol-5-yl)methyl)-L-proline] | 151 | 158 | 3.3 | 36.4 | –
Cc1c(-c2nc3cc(CN4CCC[C@H]4C(=O)O)c(OC(F)F)cc3o2)cccc1-c1cccc(-c2nc3cc(CN4[C@H]5CC[C@@H]4CC5)c(OC(F)F)cc3o2)c1C [Example 72, ((2-(3′-(5-(((1s,4s)-7-azabicyclo[2.2.1]heptan-7-yl)methyl)-6-(difluoromethoxy)benzo[d]oxazol-2-yl)-2,2′-dimethyl-[1,1′-biphenyl]-3-yl)-6-(difluoromethoxy)benzo[d]oxazol-5-yl)methyl)-L-proline] | 140 | 132 | 0.98 | 42.6 | –
Cc1c(-c2nc3cc(CN4CC(C#N)C4)c(OC(F)F)cc3o2)cccc1-c1cccc(-c2nc3cc(CN4CCC[C@H]4C(=O)O)c(OC(F)F)cc3o2)c1C [Example 80, ((2-(3′-(5-((3-cyanoazetidin-1-yl)methyl)-6-(difluoromethoxy)benzo[d]oxazol-2-yl)-2,2′-dimethyl-[1,1′-biphenyl]-3-yl)-6-(difluoromethoxy)benzo[d]oxazol-5-yl)methyl)-L-proline] | 299 | 167 | – | 247 | 5 to 50
C=C1CN(Cc2cc3nc(-c4cccc(-c5cccc(-c6nc7cc(CN8CCC[C@H]8C(=O)O)c(OC(F)F)cc7o6)c5C)c4C)oc3cc2OC(F)F)C1 [Example 81, ((6-(difluoromethoxy)-2-(3′-(6-(difluoromethoxy)-5-((3-methyleneazetidin-1-yl)methyl)benzo[d]oxazol-2-yl)-2,2′-dimethyl-[1,1′-biphenyl]-3-yl)benzo[d]oxazol-5-yl)methyl)-L-proline] | 468 | 383 | – | 115 | 5 to 50
Cc1c(-c2nc3cc(CN4CC[C@@H](C(=O)O)C4)c(OC(F)F)cc3o2)cccc1-c1cccc(-c2nc3cc(CN4CC(C)(C)C4)c(OC(F)F)cc3o2)c1C [Example 85, (R)-1-((6-(difluoromethoxy)-2-(3′-(6-(difluoromethoxy)-5-((3,3-dimethylazetidin-1-yl)methyl)benzo[d]oxazol-2-yl)-2,2′-dimethyl-[1,1′-biphenyl]-3-yl)benzo[d]oxazol-5-yl)methyl)pyrrolidine-3-carboxylic acid] | 146 | 135 | – | 75.9 | 0.1 to 5
